We go through 33 compounds from ChEMBL document CHEMBL1135136, “Carbonic anhydrase inhibitors. Preparation of potent sulfonamides inhibitors incorporating bile acid tails” (Bioorg Med Chem Lett, 2002).

As usually defined, the Ki is a dissociation constant, usually derived from enzyme kinetics or from competition with a known ligand. A higher Ki goes with a looser hold on the target.

Assay [1] addresses Carbonic anhydrase 2 (Homo sapiens, UniProt P00918).
Description: Inhibitory activity against human recombinant carbonic anhydrase II (CA2)
For assay [2], the target named is T1, Carbonic anhydrase 4 (Bos taurus, UniProt Q95323).
T1 sequence (Q95323 whole entry): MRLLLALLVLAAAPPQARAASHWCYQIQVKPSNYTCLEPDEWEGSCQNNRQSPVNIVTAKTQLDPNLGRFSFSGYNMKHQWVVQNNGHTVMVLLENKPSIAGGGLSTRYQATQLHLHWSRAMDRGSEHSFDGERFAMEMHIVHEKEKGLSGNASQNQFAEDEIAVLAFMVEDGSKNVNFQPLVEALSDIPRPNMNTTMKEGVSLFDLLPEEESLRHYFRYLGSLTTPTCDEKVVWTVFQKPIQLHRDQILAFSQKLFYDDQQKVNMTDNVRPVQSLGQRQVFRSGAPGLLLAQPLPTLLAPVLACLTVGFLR
Description: Inhibitory activity against bovine carbonic anhydrase IV (CA4), obtained from bovine lung microsomes

Assay [3] deals with Carbonic anhydrase 1 (Homo sapiens, UniProt P00915).
Carbonic anhydrase 1, sequence (P00915 whole entry): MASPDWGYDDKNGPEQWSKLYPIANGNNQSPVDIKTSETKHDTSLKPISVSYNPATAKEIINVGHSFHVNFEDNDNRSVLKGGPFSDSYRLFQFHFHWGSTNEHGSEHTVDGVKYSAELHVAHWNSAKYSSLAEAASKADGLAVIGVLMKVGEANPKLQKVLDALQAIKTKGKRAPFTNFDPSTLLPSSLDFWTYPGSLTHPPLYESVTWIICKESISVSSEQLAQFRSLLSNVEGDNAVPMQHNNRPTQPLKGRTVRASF
Description: Inhibitory activity against human recombinant carbonic anhydrase I (CA1)

Turning to `C[C@H](CCC(=O)NCCC(=O)Nc1nnc(S(N)(=O)=O)s1)[C@H]1CC[C@H]2[C@@H]3[C@H](O)C[C@@H]4C[C@H](O)CC[C@]4(C)[C@H]3C[C@H](O)[C@]12C`, the Ki came out at 1.2 nM in assay [1], 31 nM in assay [2] and 250 nM in assay [3].

In the case of `C[C@H](CCC(=O)Nc1ccc(S(N)(=O)=O)cc1Br)[C@H]1CC[C@H]2[C@@H]3CC[C@@H]4C[C@H](O)CC[C@]4(C)[C@H]3CC[C@]12C`, the inhibitory constant (Ki) in assay [1] came out at 21 nM; in assay [2], 53 nM; in assay [3] it was 120 nM.

In the case of `C[C@H](CCC(=O)NNc1ccc(S(N)(=O)=O)cc1)[C@H]1CC[C@H]2[C@@H]3C(=O)C[C@@H]4CC(=O)CC[C@]4(C)[C@H]3CC(=O)[C@]12C`, the Ki in assay [1] was found to be 260 nM; in assay [2] it was 550 nM; in assay [3], 12800 nM.

As to `C[C@H](CCC(=O)OCCc1ccc(S(N)(=O)=O)cc1)[C@H]1CC[C@H]2[C@@H]3CC[C@@H]4C[C@H](O)CC[C@]4(C)[C@H]3C[C@H](O)[C@]12C`, the inhibitory constant (Ki) in assay [1] turned out to be 78 nM; in assay [2], 300 nM; in assay [3], 885 nM.

`C[C@H](CCC(=O)OCc1ccc(S(N)(=O)=O)cc1)[C@H]1CC[C@H]2[C@@H]3CC[C@@H]4C[C@H](O)CC[C@]4(C)[C@H]3C[C@H](O)[C@]12C`: the Ki in assay [1] was 106 nM; in assay [2], 350 nM; in assay [3] it was 1000 nM.

On to `C[C@H](CCC(=O)OCCc1ccc(S(N)(=O)=O)cc1)[C@H]1CC[C@H]2[C@@H]3[C@H](O)C[C@@H]4C[C@H](O)CC[C@]4(C)[C@H]3CC[C@]12C`, for which the Ki was 90 nM in assay [1], 320 nM in assay [2] and 1100 nM in assay [3].

Regarding `C[C@H](CCC(=O)Nc1c(S(N)(=O)=O)cc(S(N)(=O)=O)c(Cl)c1Cl)[C@H]1CC[C@H]2[C@@H]3C(=O)C[C@@H]4CC(=O)CC[C@]4(C)[C@H]3CC(=O)[C@]12C`, the inhibition constant (Ki) in assay [1] was found to be 9 nM; in assay [2], 24 nM; in assay [3], 45 nM.

With `C[C@H](CCC(=O)OCc1ccc(S(N)(=O)=O)cc1)[C@H]1CC[C@H]2[C@@H]3[C@H](O)C[C@@H]4C[C@H](O)CC[C@]4(C)[C@H]3CC[C@]12C`, the results for the inhibition constant Ki in assay [1], in assay [2] and in assay [3] were 98 nM, 340 nM and 1230 nM, respectively.

Turning to `C[C@H](CCC(=O)Nc1ccc(S(N)(=O)=O)cc1F)[C@H]1CC[C@H]2[C@@H]3CC[C@@H]4C[C@H](O)CC[C@]4(C)[C@H]3CC[C@]12C`, the results for the Ki in assay [1], in assay [2] and in assay [3] were 29 nM, 36 nM and 360 nM, respectively.

`C[C@H](CCC(=O)NCCc1ccc(S(N)(=O)=O)cc1)[C@H]1CC[C@H]2[C@@H]3CC[C@@H]4C[C@H](O)CC[C@]4(C)[C@H]3C[C@H](O)[C@]12C`: the Ki turned out to be 77 nM in assay [1], 245 nM in assay [2] and 1500 nM in assay [3].

For `C[C@H](CCC(=O)NCCC(=O)Nc1nnc(S(N)(=O)=O)s1)[C@H]1CC[C@H]2[C@@H]3[C@@H](O)C[C@@H]4C[C@H](O)CC[C@]4(C)[C@H]3CC[C@]12C`, the inhibition constant (Ki) came out at 1.3 nM in assay [1], 11 nM in assay [2] and 98 nM in assay [3].

Consider `C[C@H](CCC(=O)Nc1cc(Cl)c(S(N)(=O)=O)cc1S(N)(=O)=O)[C@H]1CC[C@H]2[C@@H]3CC[C@@H]4C[C@H](O)CC[C@]4(C)[C@H]3C[C@H](O)[C@]12C`, for which the Ki in assay [1] is 55 nM; in assay [2], 121 nM; in assay [3], 225 nM.

Turning to `C[C@H](CCC(=O)NCc1ccc(S(N)(=O)=O)cc1)[C@H]1CC[C@H]2[C@@H]3[C@@H](O)C[C@@H]4C[C@H](O)CC[C@]4(C)[C@H]3CC[C@]12C`, the results for the Ki in assay [1], in assay [2] and in assay [3] were 21 nM, 40 nM and 550 nM, respectively.

Consider `C[C@H](CCC(=O)NCCC(=O)Nc1nnc(S(N)(=O)=O)s1)[C@H]1CC[C@H]2[C@@H]3CC[C@@H]4C[C@H](O)CC[C@]4(C)[C@H]3C[C@H](O)[C@]12C`, for which the inhibition constant Ki in assay [1] was found to be 2.1 nM; in assay [2] it was 30 nM; in assay [3], 200 nM.

In the case of `C[C@H](CCC(=O)NNc1ccc(S(N)(=O)=O)cc1)[C@H]1CC[C@H]2[C@@H]3[C@H](O)C[C@@H]4C[C@H](O)CC[C@]4(C)[C@H]3C[C@H](O)[C@]12C`, the values for the inhibitory constant (Ki) in assay [1], in assay [2] and in assay [3] were 315 nM, 1050 nM and 32100 nM, respectively.

On to `C[C@H](CCC(=O)/N=c1\sc(S(N)(=O)=O)nn1C)[C@H]1CC[C@H]2[C@@H]3CC[C@@H]4C[C@H](O)CC[C@]4(C)[C@H]3C[C@H](O)[C@]12C`, for which the results for the inhibition constant Ki in assay [1], in assay [2] and in assay [3] were 11 nM, 63 nM and 240 nM, respectively.

For `C[C@H](CCC(=O)OCc1ccc(S(N)(=O)=O)cc1)[C@H]1CC[C@H]2[C@@H]3C(=O)C[C@@H]4CC(=O)CC[C@]4(C)[C@H]3CC(=O)[C@]12C`, the values for the Ki in assay [1], in assay [2] and in assay [3] were 71 nM, 200 nM and 450 nM, respectively.

For the compound `C[C@H](CCC(=O)NNc1ccc(S(N)(=O)=O)cc1)[C@H]1CC[C@H]2[C@@H]3CC[C@@H]4C[C@H](O)CC[C@]4(C)[C@H]3C[C@H](O)[C@]12C`, the figures for the Ki in assay [1], in assay [2] and in assay [3] were 310 nM, 920 nM and 21300 nM, respectively.

For `C[C@H](CCC(=O)Nc1ccccc1S(N)(=O)=O)[C@H]1CC[C@H]2[C@@H]3C(=O)C[C@@H]4CC(=O)CC[C@]4(C)[C@H]3CC(=O)[C@]12C`, the results for the inhibition constant Ki in assay [1], in assay [2] and in assay [3] were 170 nM, 505 nM and 8100 nM, respectively.

Regarding `C[C@H](CCC(=O)Oc1ccc2nc(S(N)(=O)=O)sc2c1)[C@H]1CC[C@H]2[C@@H]3CC[C@@H]4C[C@H](O)CC[C@]4(C)[C@H]3CC[C@]12C`, the values for the Ki in assay [1], in assay [2] and in assay [3] were 2 nM, 9 nM and 40 nM, respectively.

Regarding `C[C@H](CCC(=O)NCCC(=O)Nc1nnc(S(N)(=O)=O)s1)[C@H]1CC[C@H]2[C@@H]3[C@H](O)C[C@@H]4C[C@H](O)CC[C@]4(C)[C@H]3CC[C@]12C`, the values for the Ki in assay [1], in assay [2] and in assay [3] were 2 nM, 45 nM and 268 nM, respectively.

With `C[C@H](CCC(=O)Nc1ccc(S(N)(=O)=O)cc1F)[C@H]1CC[C@H]2[C@@H]3CC[C@@H]4C[C@H](O)CC[C@]4(C)[C@H]3C[C@H](O)[C@]12C`, the values for the Ki in assay [1], in assay [2] and in assay [3] were 42 nM, 96 nM and 780 nM, respectively.

Turning to `C[C@H](CCC(=O)Nc1ccc(S(N)(=O)=O)cc1)[C@H]1CC[C@H]2[C@@H]3[C@H](O)C[C@@H]4C[C@H](O)CC[C@]4(C)[C@H]3C[C@H](O)[C@]12C`, the inhibitory constant (Ki) in assay [1] amounted to 210 nM; in assay [2], 430 nM; in assay [3] it was 21000 nM.

Regarding `C[C@H](CCC(=O)Nc1cc(Cl)c(S(N)(=O)=O)cc1S(N)(=O)=O)[C@H]1CC[C@H]2[C@@H]3[C@H](O)C[C@@H]4C[C@H](O)CC[C@]4(C)[C@H]3CC[C@]12C`, the inhibitory constant (Ki) was determined as 62 nM in assay [1], 143 nM in assay [2] and 300 nM in assay [3].

Turning to `C[C@H](CCC(=O)OCc1ccc(S(N)(=O)=O)cc1)[C@H]1CC[C@H]2[C@@H]3CC[C@@H]4C[C@H](O)CC[C@]4(C)[C@H]3CC[C@]12C`, the inhibition constant (Ki) was determined as 92 nM in assay [1], 313 nM in assay [2] and 800 nM in assay [3].

As for `C[C@H](CCC(=O)Nc1ccccc1S(N)(=O)=O)[C@H]1CC[C@H]2[C@@H]3[C@H](O)C[C@@H]4C[C@H](O)CC[C@]4(C)[C@H]3C[C@H](O)[C@]12C`, the figures for the inhibitory constant (Ki) in assay [1], in assay [2] and in assay [3] were 275 nM, 1200 nM and 25500 nM, respectively.

For the compound `C[C@H](CCC(=O)NCc1ccc(S(N)(=O)=O)cc1)[C@H]1CC[C@H]2[C@@H]3[C@H](O)C[C@@H]4C[C@H](O)CC[C@]4(C)[C@H]3C[C@H](O)[C@]12C`, the results for the inhibition constant Ki in assay [1], in assay [2] and in assay [3] were 120 nM, 254 nM and 3780 nM, respectively.

Consider `C[C@H](CCC(=O)OCCc1ccc(S(N)(=O)=O)cc1)[C@H]1CC[C@H]2[C@@H]3[C@@H](O)C[C@@H]4C[C@H](O)CC[C@]4(C)[C@H]3CC[C@]12C`, for which the Ki was 58 nM in assay [1], 160 nM in assay [2] and 350 nM in assay [3].

As to `C[C@H](CCC(=O)Oc1ccc2nc(S(N)(=O)=O)sc2c1)[C@H]1CC[C@H]2[C@@H]3[C@H](O)C[C@@H]4C[C@H](O)CC[C@]4(C)[C@H]3CC[C@]12C`, the Ki was found to be 6.1 nM in assay [1], 12 nM in assay [2] and 47 nM in assay [3].

As for `C[C@H](CCC(=O)Nc1ccc(S(N)(=O)=O)cc1)[C@H]1CC[C@H]2[C@@H]3[C@@H](O)C[C@@H]4C[C@H](O)CC[C@]4(C)[C@H]3CC[C@]12C`, the figures for the inhibition constant Ki in assay [1], in assay [2] and in assay [3] were 71 nM, 164 nM and 4000 nM, respectively.

For the compound `C[C@H](CCC(=O)Nc1ccc(S(N)(=O)=O)cc1F)[C@H]1CC[C@H]2[C@@H]3[C@H](O)C[C@@H]4C[C@H](O)CC[C@]4(C)[C@H]3C[C@H](O)[C@]12C`, the Ki was 50 nM in assay [1], 133 nM in assay [2] and 1280 nM in assay [3].

With `C[C@H](CCC(=O)Nc1ccccc1S(N)(=O)=O)[C@H]1CC[C@H]2[C@@H]3[C@H](O)C[C@@H]4C[C@H](O)CC[C@]4(C)[C@H]3CC[C@]12C`, the Ki in assay [1] worked out at 245 nM; in assay [2], 900 nM; in assay [3], 22100 nM.

As for `C[C@H](CCC(=O)NCCc1ccc(S(N)(=O)=O)cc1)[C@H]1CC[C@H]2[C@@H]3[C@H](O)C[C@@H]4C[C@H](O)CC[C@]4(C)[C@H]3C[C@H](O)[C@]12C`, the figures for the inhibitory constant (Ki) in assay [1], in assay [2] and in assay [3] were 86 nM, 220 nM and 3400 nM, respectively.
